Tests used:
anti-8EPGF2 IgG [1] = test: specificity / cross-reactivity of anti-8EPGF2 IgG (competitive ELISA); assay type: binding, goat; details: for cross-reaction with anti-8EPGF2 IgG (in words) / cross-reaction with anti-8EPGF2 IgG: 8EPGF2 ELISA
Method: The IgG bound to the protein G column was eluted with 50 mM glycine-HCl buffer, pH 2.5, and immediately neutralized with 0.5M Tris-HCl, pH 7.6.
High-binding strip well microplates (Labsystems, Inc., Marlboro, Ma.) were coated with protein G-purified IgG suspended in 1M carbonate, pH 9.0, (1 μg/well; 200 μL/well final volume) and then covered with parafilm. After overnight incubation at room temperature, the wells were gently washed five times with tris buffered saline (TBS), pH 7.5, containing 0.1% tween. Non-specific sites were blocked by the addition of 0.2 mL of 5% (w/v) nonfat dry milk in TBS. After 2 hours of incubation at room temperature, the plates were washed three times with TBS-tween. […] Following incubation for 1 hour to permit competitive binding to bound antibody, unbound material was removed by thoroughly washing the wells with TBS-tween and 150 μL of a calorimetric substrate for HRP [3,3',5,5'tetramethylbenzidine (TMB) with hydrogen peroxide] (ELISA Technologies) was added. After incubation of the plate for 20 minutes, the reaction is stopped by addition of 75 μL of 1N H2 SO4, and the absorbance at 450 nm determined using a microtiter plate reader. Under these assay conditions, the amount of color in a well is inversely proportional to the initial concentration of the sample or standard ligand.

anti-8EPGF2 IgG [2] = test: immunoaffinity column retention of 8EPGF2 on anti-8EPGF2 IgG resin; assay type: binding, goat; details: up to 10 ng 8EPGF2 applied
Method: Reacti-gel was obtained from Pierce Co. and anti-8EPGF2 immunoaffinity column was prepared according to the manufacturer's instruction. […] In each experiment samples were diluted to concentrations lower than the capacity of the column (~0.5 ng/100 μL) prior to application to the column.
Urine samples were applied to immunoaffinity columns, which were then eluted with acetonitrile:water (1:3), followed by acetone:water (90:10). The eluates were then processed and analyzed using the standard GC/MS protocol as described herein above. […] PGF2α has a slightly longer retention time than the [^2 H4 ]-PGF2α (the internal control) shown in the bottom chromatograms of FIG. 4A and 4B, because protium runs faster than deuterium on GC [Wendelborn et al, 1990]. The six peaks with m/z=569 are numbered by the order of elution and the elution time of each peak was divided by the elution time of internal standard, [^2 H4 ]-PGF2α, obtained at m/z=573 to calculate relative elution time of each peak. […] The identity of Peak I, II, III, and VI is not known.

vasoconstriction = details: cited from earlier work
[3] = aqueous solution, non-enzymatic rearrangement to PGD2 and PGE2; cited from earlier work

| Compound | cross-reaction with anti-8EPGF2 IgG (in words) (anti-8EPGF2 IgG [1]) | other results |
| --- | --- | --- |
| CCCCC[C@H](O)/C=C/[C@@H]1[C@@H](CC(=O)CCCCC(=O)O)[C@@H](O)C[C@H]1O [6-keto-PGF1α] | did not cross-react | – |
| CCCCC[C@H](O)/C=C/[C@@H]1[C@H](CCCCCCC(=O)O)[C@@H](O)C[C@H]1O [8-epi-PGF1α, 5,6-dihydro-8-iso-PGF2α] | did not cross-react | – |
| CCCCC[C@H](O)/C=C/[C@@H]1[C@H](CCCCCCC(=O)O)[C@H](O)C[C@H]1O [8-epi-PGF1β] | did not cross-react | – |
| CCCCC[C@H](O)/C=C/[C@@H]1[C@H](C/C=C\CCCC(=O)O)[C@@H](O)C[C@H]1O [8EPGF2, 8-epi-prostaglandin F2α] | – | recognition by anti-8EPGF2 antibody (in words) (anti-8EPGF2 IgG [1]; polyclonal antibody, ELISA): recognized; applied 8EPGF2 bound to antibody cross-linked to resin (anti-8EPGF2 IgG [2]): higher than 98%; unbound 8EPGF2 (anti-8EPGF2 IgG [2]; 100 μl resin): lower than 2%; vasoconstrictor property (in words) (vasoconstriction): vasoconstrictor property; effect of high serum concentration on renal arteries (in words) (vasoconstriction; hepatorenal syndrome patients): intense vasoconstriction of renal arteries |
| CCCCC[C@H](O)/C=C/[C@@H]1[C@@H](C/C=C\CCCC(=O)O)[C@@H](O)C[C@@H]1O [9α-11β-PGF2] | – | cross-reaction with anti-8EPGF2 IgG (anti-8EPGF2 IgG [1]): 4.1% |
| CCCCC[C@H](O)/C=C/[C@@H]1[C@@H](C/C=C\CCCC(=O)O)[C@H](O)C[C@H]1O [9β-11α-PGF2α] | did not cross-react | – |
| CCCCC[C@H](O)/C=C/[C@@H]1[C@@H](CCCCCCC(=O)O)[C@H](O)C[C@@H]1O [11β-PGF1β] | did not cross-react | – |
| CCCCC[C@H](O)CC[C@@H]1[C@@H](CCCCCCC(=O)O)[C@@H](O)C[C@H]1O [13,14-dihydro-PGF1α] | did not cross-react | – |
| CCCCCC(=O)CC[C@@H]1[C@@H](CCCCCCC(=O)O)[C@@H](O)C[C@H]1O [13-14-dihydro-15-keto-PGF1α] | did not cross-react | – |
| CCCCCC(=O)CC[C@@H]1[C@@H](C/C=C\CCCC(=O)O)[C@@H](O)C[C@H]1O [13-14-dihydro-15-keto-PGF2α] | – | cross-reaction with anti-8EPGF2 IgG (anti-8EPGF2 IgG [1]): 3% |
| CCCCC[C@H](O)/C=C/[C@H]1C(=O)C[C@H](O)[C@@H]1C/C=C\CCCC(=O)O [PGD2] | did not cross-react | – |
| CCCCC[C@H](O)/C=C/[C@@H]1[C@@H](CCCCCCC(=O)O)[C@H](O)C[C@H]1O [PGF1β] | did not cross-react | – |
| CCCCC[C@H](O)/C=C/[C@@H]1[C@@H](C/C=C\CCCC(=O)O)[C@@H](O)C[C@H]1O [PGF2α] | did not cross-react | – |
| CCCCC/C=C\C/C=C\C/C=C\C/C=C\CCCC(=O)O [arachidonic acid] | did not cross-react | – |
| CCCCC[C@H](O)/C=C/[C@H]1[C@H](O)CC(=O)[C@@H]1C/C=C\CCCC(=O)O [prostaglandin E2] | did not cross-react | – |
| CCCCC[C@@H](/C=C/[C@@H]1[C@@H](C/C=C\CCCC(=O)O)[C@@H]2C[C@H]1OO2)OO [prostaglandin G2] | – | t1/2 [3]: ~ 5 minutes |
| CCCCC[C@H](O)/C=C/[C@@H]1[C@@H](C/C=C\CCCC(=O)O)[C@@H]2C[C@H]1OO2 [prostaglandin H2] | – | t1/2 [3]: ~ 5 minutes |
